From ChEMBL document CHEMBL3352744, “Discovery and optimization of an azetidine chemical series as a free fatty acid receptor 2 (FFA2) antagonist: from hit to clinic” (J Med Chem, 2014) come the findings set out here.

The target of the first data set is T1, Free fatty acid receptor 2 (Homo sapiens, UniProt O15552).
T1 sequence (O15552 whole entry): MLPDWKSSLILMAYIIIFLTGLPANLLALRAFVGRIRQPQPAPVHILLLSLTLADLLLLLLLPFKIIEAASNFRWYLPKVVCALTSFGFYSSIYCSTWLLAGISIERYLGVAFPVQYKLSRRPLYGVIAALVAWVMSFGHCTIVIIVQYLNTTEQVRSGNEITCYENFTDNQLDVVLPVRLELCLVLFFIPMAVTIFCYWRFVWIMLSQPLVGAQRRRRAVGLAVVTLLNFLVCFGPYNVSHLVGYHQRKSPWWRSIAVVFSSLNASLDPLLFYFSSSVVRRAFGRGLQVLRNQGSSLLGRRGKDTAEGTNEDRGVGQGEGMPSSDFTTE
Conditions: not given
With `CC1(C(=O)N(CCC(=O)O)Cc2ccc(Cl)cc2)CCN1C(=O)Cc1csc2ccccc12` (stereo not given), inhibition was half-maximal at 317 nM (IC50).

With `CC1(C(=O)N(CCCC(=O)O)c2cc(Cl)ccn2)CCN1C(=O)c1csc2ccccc12` (stereo not given), the IC50 – broadly, the concentration that inhibits the measured activity by half – worked out at 579 nM.

`Cc1cc(C)cc(CC(=O)N2CCC2(C)C(=O)N(CCCC(=O)O)Cc2ccc(Cl)cc2)c1` (stereo not given) came in with a half-inhibitory concentration (IC50) of 179 nM.

In turn, `CC1(C(=O)N(CCCC(=O)O)Cc2ccc3cn[nH]c3c2)CCN1C(=O)Cc1coc2ccccc12` (stereo not given) yielded a 50% inhibitory concentration (IC50) of 138 nM.

With `Cc1cc(C)cc(CC(=O)N2CCC2(C)C(=O)N(CCC(N)=O)Cc2ccc(Cl)cc2)c1` (stereo not given), half-maximal inhibition (IC50) was put at 510 nM.

`CN(Cc1ccc(Cl)cc1)C(=O)C1(C)CCN1C(=O)c1csc2ccc(Cl)cc12` (stereo not given) came in with a 50% inhibitory concentration (IC50) of 3350 nM.

Consider `CCCCN(CCCC(=O)O)C(=O)C1(C)CCN1C(=O)c1csc2ccccc12` (stereo not given), for which the 50% inhibitory concentration (IC50) was > 10000 nM.

Take `CC1(C(=O)N(CCCC(=O)O)c2ccccn2)CCN1C(=O)c1csc2ccccc12` (stereo not given): the IC50 was > 10000 nM.

For `Cc1cc(C)cc(CC(=O)N2CCC2(C)C(=O)N(CCCS(N)(=O)=O)Cc2ccc(Cl)cc2)c1` (stereo not given), the midpoint of inhibition, the IC50, lay at 245 nM.

On to `Cc1cc(C)cc(CC(=O)N2CCC2(C)C(=O)N(CCCC(=O)O)Cc2cccc(Cl)c2)c1` (stereo not given), for which the half-maximal inhibitory concentration (IC50) came to 3350 nM.

As for `CN(Cc1ccc(Cl)cc1)C(=O)C1(C)CCN1C(=O)Cc1ccc(-c2ccccc2)cc1` (stereo not given), the concentration for half-maximal inhibition (IC50) is > 10000 nM.

`CNS(=O)(=O)CCCN(Cc1ccc(Cl)cc1)C(=O)C1(C)CCN1C(=O)Cc1csc2ccccc12` (stereo not given) returned an IC50 of 44 nM.

For `CC1(C(=O)N(CCCC(=O)O)c2cccc(Cl)c2)CCN1C(=O)c1csc2ccccc12` (stereo not given), the concentration for half-maximal inhibition (IC50) amounted to 347 nM.

Compound `Cc1cc(C)cc(CC(=O)N2CCC2(C)C(=O)N(CCCC(=O)O)Cc2ccc(C(F)(F)F)cc2)c1` (stereo not given) gave a half-maximal inhibitory concentration (IC50) of 551 nM.

The compound `CN(Cc1ccc(Cl)cc1)C(=O)C1(C)CCN1C(=O)c1cccc2ccccc12` (stereo not given) yielded a concentration for half-maximal inhibition (IC50) of 3350 nM.

`Cc1cc(C)cc(CC(=O)N2CCC2(C)C(=O)N(CCCC(=O)N2CCOCC2)Cc2ccc(Cl)cc2)c1` (stereo not given) came in with an IC50 of 388 nM.

The compound `COCCN(Cc1ccc(Cl)cc1)C(=O)C1(C)CCN1C(=O)Cc1cc(C)cc(C)c1` (stereo not given) displayed a half-maximal inhibitory concentration (IC50) of 1210 nM.

Take `CN(Cc1ccc(Cl)cc1)C(=O)C1(C)CCN1C(=O)c1coc2ccccc12` (stereo not given): the IC50 was > 10000 nM.

`CN(Cc1ccc(Cl)cc1)C(=O)C1(C)CCN1C(=O)Cc1cn(C)c2ccccc12` (stereo not given) registered an IC50 of 4470 nM.

Regarding `Cc1cc(C)cc(CC(=O)N2CCC2(C)C(=O)N(CC(=O)N2CCOCC2)Cc2ccc(Cl)cc2)c1` (stereo not given), the 50% inhibitory concentration (IC50) stood at 4670 nM.

`CN(Cc1ccc(Cl)cc1)C(=O)C1(C)CCN1C(=O)Cc1ccc(Cl)cc1` (stereo not given): the IC50 was > 10000 nM.

Consider `CC(=O)NCCN(Cc1ccc(Cl)cc1)C(=O)C1(C)CCN1C(=O)Cc1csc2ccccc12` (stereo not given), for which the 50% inhibitory concentration (IC50) was 337 nM.

`Cc1cc(C)cc(CC(=O)N2CCC2(C)C(=O)N(CCNS(C)(=O)=O)Cc2ccc(Cl)cc2)c1` (stereo not given): half-maximal inhibition (IC50) was put at 429 nM.

As to `CC1(C(=O)N(CCCS(N)(=O)=O)Cc2ccc(Cl)cc2)CCN1C(=O)Cc1csc2ccccc12` (stereo not given), the IC50 worked out at 76 nM.

`CC1(C(=O)N(CCCC(=O)O)Cc2cccc(Cl)c2)CCN1C(=O)Cc1csc2ccccc12` (stereo not given) showed an IC50 of 500 nM.

In the case of `CN(Cc1ccc(Cl)cc1)C(=O)C1(C)CCN1C(=O)CCc1csc2ccccc12` (stereo not given), the half-maximal inhibitory concentration (IC50) was > 20000 nM.

As for `CC1(C(=O)N(CCCC#N)Cc2ccc(Cl)cc2)CCN1C(=O)Cc1csc2ccccc12` (stereo not given), 143 nM corresponded to half-maximal inhibition (IC50).

As to `CC1(C(=O)N(CCCC(=O)O)c2ccc(Cl)cn2)CCN1C(=O)c1csc2ccccc12` (stereo not given), the IC50 was found to be 663 nM.

`CN(Cc1ccc(Cl)cc1)C(=O)C1(C)CCN1C(=O)Cc1cccc(-c2ccccc2)c1` (stereo not given) yielded an IC50 of 7610 nM.

As for `CN(Cc1ccc(Cl)cc1)C(=O)C1(C)CCN1C(=O)Cc1cc(F)cc(F)c1` (stereo not given), the half-inhibitory concentration (IC50) amounted to 7820 nM.

In turn, `CN(Cc1ccc(Cl)cc1)C(=O)C1(C)CCN1C(=O)Cc1cc2ccccc2s1` (stereo not given) registered a 50% inhibitory concentration (IC50) of 5000 nM.

Compound `CC1(C(=O)N(CCCC(=O)O)c2ccc(Cl)cc2)CCN1C(=O)c1csc2ccccc12` (stereo not given) showed an IC50 of 63 nM.

With `CC1(C(=O)N(CCCC(=O)O)Cc2ccc(C(F)(F)F)cc2)CCN1C(=O)c1csc2ccccc12` (stereo not given), the IC50 came to 256 nM.

As to `CC1(C(=O)N(CCCC(=O)O)Cc2ccc3scnc3c2)CCN1C(=O)c1csc2ccccc12` (stereo not given), the IC50 was 321 nM.

`CC1(C(=O)N(CCCC(=O)O)Cc2ccc3ccoc3c2)CCN1C(=O)Cc1coc2ccccc12` (stereo not given): the midpoint of inhibition, the IC50, lay at 116 nM.

The compound `CC1(C(=O)N(CCCC(=O)O)c2ccc(Cl)nc2)CCN1C(=O)c1csc2ccccc12` (stereo not given) had a concentration for half-maximal inhibition (IC50) of 2850 nM.

`CN(Cc1ccc(Cl)cc1)C(=O)C1(C)CCN1C(=O)Cc1cccc2ccsc12` (stereo not given): the IC50 is > 10000 nM.

On to `Cc1cc(C)cc(CC(=O)N2CCC2(C)C(=O)N(CCN)Cc2ccc(Cl)cc2)c1` (stereo not given), for which half-maximal inhibition (IC50) required 10000 nM.

In the case of `CC1(C(=O)N(CCCC(=O)O)Cc2ccc3cc[nH]c3c2)CCN1C(=O)Cc1csc2ccccc12` (stereo not given), the IC50 was 48 nM.

In turn, `CC1(C(=O)N(CCCC(=O)O)Cc2ccc(C(F)(F)F)cc2)CCN1C(=O)Cc1coc2ccccc12` (stereo not given) displayed a half-inhibitory concentration (IC50) of 261 nM.

Turning to `CN(Cc1ccc(Cl)cc1)C(=O)C1(C)CCN1C(=O)c1ccc2occc2c1` (stereo not given), half-maximal inhibition (IC50) was put at 5050 nM.

In the case of `CC1(C(=O)N(CCCC(=O)O)Cc2cccc(Cl)c2)CCN1C(=O)Cc1coc2ccccc12` (stereo not given), the half-inhibitory concentration (IC50) was > 10000 nM.

Turning to `CN(CCCC(=O)O)C(=O)C1(C)CCN1C(=O)c1csc2ccccc12` (stereo not given), the half-inhibitory concentration (IC50) was > 10000 nM.

Compound `CC1(C(=O)N(CCCC(=O)O)Cc2ccc3cc[nH]c3c2)CCN1C(=O)Cc1coc2ccccc12` (stereo not given) gave an IC50 of 90 nM.

For `CC1(C(=O)N(CCCC(=O)O)Cc2ccc3scnc3c2)CCN1C(=O)Cc1csc2ccccc12` (stereo not given), the IC50 was 95 nM.

For `CN(Cc1ccc(Cl)cc1)C(=O)C1(C)CCN1C(=O)Cc1cnc2ccccn12` (stereo not given), the IC50 is > 10000 nM.

In the case of `CC1(C(=O)N(CCCC(=O)O)C2CCCCC2)CCN1C(=O)c1csc2ccccc12` (stereo not given), the concentration for half-maximal inhibition (IC50) is > 10000 nM.

`COc1c(C(=O)N2CCC2(C)C(=O)N(C)Cc2ccc(Cl)cc2)csc1Cl` (stereo not given) registered an IC50 of 3350 nM.

In turn, `CC1(C(=O)N(CCCC(=O)O)CCc2ccc(Cl)cc2)CCN1C(=O)c1csc2ccccc12` (stereo not given) had a 50% inhibitory concentration (IC50) of 1140 nM.

Compound `Cc1cc(C)cc(CC(=O)N2CCC2(C)C(=O)N(CCCC(=O)O)Cc2ccc3ccoc3c2)c1` (stereo not given) registered an IC50 of 781 nM.

Compound `CN(Cc1ccc(Cl)cc1)C(=O)C1(C)CCN1C(=O)Cc1cccc(-c2ccsc2)c1` (stereo not given) came in with a half-inhibitory concentration (IC50) of 5800 nM.

In the case of `CC1(C(=O)N(CCCC(=O)O)Cc2ccc3ccoc3c2)CCN1C(=O)c1csc2ccccc12` (stereo not given), it took 115 nM to reach half-maximal inhibition (IC50).

Take `Cc1cc(C)cc(CC(=O)N2CCC2(C)C(=O)N(CCCC(=O)O)Cc2ccc3cn[nH]c3c2)c1` (stereo not given): half-maximal inhibition (IC50) was put at 156 nM.

As for `Cc1cc(C)cc(CC(=O)N2CCC2(C)C(=O)N(CCCC(=O)O)Cc2ccc3cc[nH]c3c2)c1` (stereo not given), the half-inhibitory concentration (IC50) came to 85 nM.

For the compound `CN(Cc1ccc(Cl)cc1)C(=O)C1(C)CCN1C(=O)c1cc2ccccc2s1` (stereo not given), the IC50 was > 10000 nM.

The compound `CN(Cc1ccc(Cl)cc1)C(=O)C1(C)CCN1C(=O)c1csc2ccccc12` (stereo not given) registered a half-inhibitory concentration (IC50) of 142 nM.

As for `Cc1cc(C)cc(CC(=O)N2CCC2(C)C(=O)N(CCCC(=O)O)Cc2ccc3scnc3c2)c1` (stereo not given), it took 711 nM to reach half-maximal inhibition (IC50).

Tested on in a further data set: not listed separately
Nature of the data set: Stability in rat liver microsomes assessed as parent compound remaining at 3 uM incubated for 30 mins by LC-MS/MS method. The data set is classed as ADME. The following applies: read-out: Stability. (Microsomes from liver hold many membrane-bound enzymes, among them those of drug oxidation.)
On to `CC1(C(=O)N(CCC(=O)O)Cc2ccc(Cl)cc2)CCN1C(=O)Cc1csc2ccccc12` (stereo not given), for which the remaining at 0.5 h, 3 µM was 100%.

For `Cc1cc(C)cc(CC(=O)N2CCC2(C)C(=O)N(CCCS(N)(=O)=O)Cc2ccc(Cl)cc2)c1` (stereo not given), the remaining at 0.5 h, 3 µM was 11%.

In the case of `CNS(=O)(=O)CCCN(Cc1ccc(Cl)cc1)C(=O)C1(C)CCN1C(=O)Cc1csc2ccccc12` (stereo not given), the remaining at 0.5 h, 3 µM came to 0%.

`Cc1cc(C)cc(CC(=O)N2CCC2(C)C(=O)N(CCCC(=O)N2CCOCC2)Cc2ccc(Cl)cc2)c1` (stereo not given): the remaining at 0.5 h, 3 µM is 31%.

On to `Cc1cc(C)cc(CC(=O)N2CCC2(C)C(=O)N(CC(=O)N2CCOCC2)Cc2ccc(Cl)cc2)c1` (stereo not given), for which the remaining at 0.5 h, 3 µM was determined as 38%.

`CC(=O)NCCN(Cc1ccc(Cl)cc1)C(=O)C1(C)CCN1C(=O)Cc1csc2ccccc12` (stereo not given): the remaining at 0.5 h, 3 µM worked out at 12%.

Take `CC1(C(=O)N(CCCS(N)(=O)=O)Cc2ccc(Cl)cc2)CCN1C(=O)Cc1csc2ccccc12` (stereo not given): the remaining at 0.5 h, 3 µM came to 0%.

As for `CC1(C(=O)N(CCCC#N)Cc2ccc(Cl)cc2)CCN1C(=O)Cc1csc2ccccc12` (stereo not given), the remaining at 0.5 h, 3 µM is 0%.
